Where only a bound is given, the exact number is not on record here.

Here are results for eleven compounds from ChEMBL document CHEMBL5291721, “A preclinical secondary pharmacology resource illuminates target-adverse drug reaction associations of marketed drugs” (Nat Commun, 2023).

Some targets named below: Glucagon receptor (Homo sapiens, UniProt P47871); Histamine H2 receptor (Homo sapiens, UniProt P25021); Vasopressin V2 receptor (Homo sapiens, UniProt P30518).
Experiment [1] has as its target T1, Gastric inhibitory polypeptide receptor (Homo sapiens, UniProt P48546).
T1 sequence (P48546 whole entry): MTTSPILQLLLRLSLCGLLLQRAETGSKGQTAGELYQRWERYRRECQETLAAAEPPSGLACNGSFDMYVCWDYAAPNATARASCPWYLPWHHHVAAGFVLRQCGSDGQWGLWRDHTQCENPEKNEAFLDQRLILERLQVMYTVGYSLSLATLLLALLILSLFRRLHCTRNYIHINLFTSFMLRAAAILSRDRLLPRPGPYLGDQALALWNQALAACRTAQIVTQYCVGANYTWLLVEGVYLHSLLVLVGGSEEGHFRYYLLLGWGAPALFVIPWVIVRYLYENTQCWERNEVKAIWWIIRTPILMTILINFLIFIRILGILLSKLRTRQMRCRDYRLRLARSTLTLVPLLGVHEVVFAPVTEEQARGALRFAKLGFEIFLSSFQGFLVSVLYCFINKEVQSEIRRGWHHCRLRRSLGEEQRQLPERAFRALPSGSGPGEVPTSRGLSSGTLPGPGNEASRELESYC

For experiment [2], the target named is Neurotensin receptor type 1 (Homo sapiens, UniProt P30989).
The target in experiment [3] is Sodium-dependent noradrenaline transporter (Homo sapiens, UniProt P23975).
For experiment [4], the target named is T2, Corticotropin-releasing factor receptor 2 (Homo sapiens, UniProt Q13324).
T2 sequence (Q13324 whole entry): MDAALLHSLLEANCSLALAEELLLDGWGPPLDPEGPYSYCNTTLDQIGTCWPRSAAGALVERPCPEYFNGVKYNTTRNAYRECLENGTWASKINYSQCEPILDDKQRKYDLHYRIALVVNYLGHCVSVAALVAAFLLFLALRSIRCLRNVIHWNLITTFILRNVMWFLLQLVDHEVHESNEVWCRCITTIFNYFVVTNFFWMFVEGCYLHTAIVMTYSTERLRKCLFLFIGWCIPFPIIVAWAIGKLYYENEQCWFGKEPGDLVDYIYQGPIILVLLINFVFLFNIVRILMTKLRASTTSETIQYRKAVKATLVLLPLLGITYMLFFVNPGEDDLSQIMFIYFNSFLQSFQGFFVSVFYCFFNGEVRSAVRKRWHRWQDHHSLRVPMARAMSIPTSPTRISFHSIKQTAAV

The target of experiment [5] is T3, Alpha-2A adrenergic receptor (Homo sapiens, UniProt P08913).
T3 sequence (P08913 whole entry): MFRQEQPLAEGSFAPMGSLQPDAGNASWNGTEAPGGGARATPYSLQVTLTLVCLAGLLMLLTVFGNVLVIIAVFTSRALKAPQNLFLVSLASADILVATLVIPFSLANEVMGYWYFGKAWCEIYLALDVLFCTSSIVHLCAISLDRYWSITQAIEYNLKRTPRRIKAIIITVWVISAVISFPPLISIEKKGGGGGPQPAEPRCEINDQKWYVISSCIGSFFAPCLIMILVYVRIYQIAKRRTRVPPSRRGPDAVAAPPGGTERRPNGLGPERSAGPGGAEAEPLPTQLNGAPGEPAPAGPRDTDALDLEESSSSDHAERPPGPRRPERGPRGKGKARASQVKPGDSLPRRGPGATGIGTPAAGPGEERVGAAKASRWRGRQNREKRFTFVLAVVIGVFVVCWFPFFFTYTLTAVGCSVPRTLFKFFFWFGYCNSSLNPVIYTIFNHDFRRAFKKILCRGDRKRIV

The target in experiment [6] is Delta-type opioid receptor (Homo sapiens, UniProt P41143).
The target of another experiment is T4, Estrogen receptor (Homo sapiens, UniProt P03372).
T4 sequence (P03372 whole entry): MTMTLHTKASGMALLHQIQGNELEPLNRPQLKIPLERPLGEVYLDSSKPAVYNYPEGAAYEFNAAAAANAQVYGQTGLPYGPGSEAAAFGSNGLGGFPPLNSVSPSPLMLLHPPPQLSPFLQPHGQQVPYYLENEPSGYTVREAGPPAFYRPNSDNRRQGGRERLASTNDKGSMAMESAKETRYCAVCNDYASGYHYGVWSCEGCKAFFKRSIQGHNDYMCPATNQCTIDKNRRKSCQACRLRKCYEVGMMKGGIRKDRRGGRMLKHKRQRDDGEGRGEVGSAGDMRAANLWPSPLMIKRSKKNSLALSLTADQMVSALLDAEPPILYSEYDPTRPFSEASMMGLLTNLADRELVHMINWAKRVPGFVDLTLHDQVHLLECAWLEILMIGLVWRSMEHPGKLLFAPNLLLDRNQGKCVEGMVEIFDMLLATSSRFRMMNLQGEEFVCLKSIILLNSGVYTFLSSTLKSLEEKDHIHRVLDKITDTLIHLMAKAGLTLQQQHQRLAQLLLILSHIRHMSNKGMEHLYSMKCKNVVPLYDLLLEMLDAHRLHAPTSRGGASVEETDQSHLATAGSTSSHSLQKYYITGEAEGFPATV
Note: assay procedure not described here.

Delta-type opioid receptor, sequence (P41143 whole entry): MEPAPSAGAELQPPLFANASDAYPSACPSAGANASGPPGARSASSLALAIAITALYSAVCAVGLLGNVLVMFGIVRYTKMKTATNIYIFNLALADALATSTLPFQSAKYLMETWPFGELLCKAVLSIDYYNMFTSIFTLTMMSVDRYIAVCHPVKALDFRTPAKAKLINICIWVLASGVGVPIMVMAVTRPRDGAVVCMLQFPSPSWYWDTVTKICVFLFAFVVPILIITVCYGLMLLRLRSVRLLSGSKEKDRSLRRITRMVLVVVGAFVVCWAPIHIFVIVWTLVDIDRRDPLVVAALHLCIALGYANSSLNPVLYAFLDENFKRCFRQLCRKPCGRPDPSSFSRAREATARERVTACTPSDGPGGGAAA
Sodium-dependent noradrenaline transporter, sequence (P23975 whole entry): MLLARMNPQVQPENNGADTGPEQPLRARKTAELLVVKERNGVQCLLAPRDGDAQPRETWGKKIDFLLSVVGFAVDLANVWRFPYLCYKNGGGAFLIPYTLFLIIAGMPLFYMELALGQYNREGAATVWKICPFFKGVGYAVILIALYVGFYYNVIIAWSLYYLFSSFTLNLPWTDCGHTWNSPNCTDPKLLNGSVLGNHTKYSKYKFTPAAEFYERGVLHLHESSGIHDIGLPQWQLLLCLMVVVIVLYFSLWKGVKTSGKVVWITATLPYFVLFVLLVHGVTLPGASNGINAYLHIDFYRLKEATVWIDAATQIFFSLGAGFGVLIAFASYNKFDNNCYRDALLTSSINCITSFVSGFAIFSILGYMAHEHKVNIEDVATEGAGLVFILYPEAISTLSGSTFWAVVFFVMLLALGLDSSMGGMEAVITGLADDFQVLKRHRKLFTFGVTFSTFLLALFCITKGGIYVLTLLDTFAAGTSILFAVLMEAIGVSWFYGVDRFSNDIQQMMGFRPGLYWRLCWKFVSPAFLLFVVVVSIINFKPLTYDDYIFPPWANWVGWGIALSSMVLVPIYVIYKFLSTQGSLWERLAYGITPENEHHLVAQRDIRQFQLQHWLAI
Histamine H2 receptor, sequence (P25021 whole entry): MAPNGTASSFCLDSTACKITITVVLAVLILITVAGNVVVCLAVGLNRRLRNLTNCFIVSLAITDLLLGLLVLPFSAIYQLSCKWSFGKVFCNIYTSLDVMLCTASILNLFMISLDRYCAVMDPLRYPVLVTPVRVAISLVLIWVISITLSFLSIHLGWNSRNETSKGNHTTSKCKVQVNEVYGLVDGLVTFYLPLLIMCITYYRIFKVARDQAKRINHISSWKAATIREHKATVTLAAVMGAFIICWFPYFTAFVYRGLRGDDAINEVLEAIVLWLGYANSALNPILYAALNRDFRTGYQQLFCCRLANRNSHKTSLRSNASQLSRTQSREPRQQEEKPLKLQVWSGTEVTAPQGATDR
Neurotensin receptor type 1, sequence (P30989 whole entry): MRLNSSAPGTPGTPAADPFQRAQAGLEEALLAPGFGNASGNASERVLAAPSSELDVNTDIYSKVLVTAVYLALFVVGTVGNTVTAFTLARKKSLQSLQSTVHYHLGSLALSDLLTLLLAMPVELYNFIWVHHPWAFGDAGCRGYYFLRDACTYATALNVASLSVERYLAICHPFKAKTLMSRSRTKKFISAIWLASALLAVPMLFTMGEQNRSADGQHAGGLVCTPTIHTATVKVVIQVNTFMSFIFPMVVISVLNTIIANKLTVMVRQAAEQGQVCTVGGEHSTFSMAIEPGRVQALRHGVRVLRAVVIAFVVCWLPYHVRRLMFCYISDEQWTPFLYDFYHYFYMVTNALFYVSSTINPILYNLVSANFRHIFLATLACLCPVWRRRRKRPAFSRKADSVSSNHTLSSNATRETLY
Vasopressin V2 receptor, sequence (P30518 whole entry): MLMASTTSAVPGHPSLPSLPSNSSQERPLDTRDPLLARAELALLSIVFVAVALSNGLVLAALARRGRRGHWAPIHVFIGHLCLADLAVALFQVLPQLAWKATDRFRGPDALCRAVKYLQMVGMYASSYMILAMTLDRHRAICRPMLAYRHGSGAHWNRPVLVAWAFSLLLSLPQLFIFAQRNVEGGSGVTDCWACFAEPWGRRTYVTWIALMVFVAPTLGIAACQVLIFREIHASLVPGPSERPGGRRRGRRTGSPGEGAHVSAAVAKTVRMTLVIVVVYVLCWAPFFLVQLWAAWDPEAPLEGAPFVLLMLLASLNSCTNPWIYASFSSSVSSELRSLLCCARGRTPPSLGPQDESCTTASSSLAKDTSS
Glucagon receptor, sequence (P47871 whole entry): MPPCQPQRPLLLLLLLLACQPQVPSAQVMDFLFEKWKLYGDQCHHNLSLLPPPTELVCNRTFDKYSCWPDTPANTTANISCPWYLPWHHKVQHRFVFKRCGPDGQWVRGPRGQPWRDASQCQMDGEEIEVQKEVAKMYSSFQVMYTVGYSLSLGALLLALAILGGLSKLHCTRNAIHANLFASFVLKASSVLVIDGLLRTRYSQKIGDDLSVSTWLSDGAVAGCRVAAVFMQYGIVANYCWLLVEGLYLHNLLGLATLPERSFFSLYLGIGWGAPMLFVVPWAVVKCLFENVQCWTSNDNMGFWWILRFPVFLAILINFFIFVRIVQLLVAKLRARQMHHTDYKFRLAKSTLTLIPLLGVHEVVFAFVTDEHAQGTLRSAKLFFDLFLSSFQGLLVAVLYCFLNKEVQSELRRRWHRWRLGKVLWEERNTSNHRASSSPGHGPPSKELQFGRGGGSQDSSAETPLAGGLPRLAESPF

On to `COc1ccccc1Oc1c(NS(=O)(=O)c2ccc(C(C)(C)C)cc2)nc(-c2ncccn2)nc1OCCO` [BOSENTAN], for which the AC50 was greater than 30 µM in [1]; greater than 30 µM in experiment [2]; greater than 30 µM at Glucagon receptor; greater than 30 µM in [3]; greater than 30 µM in experiment [4]; greater than 10 µM at Histamine H2 receptor. The AC50 in experiment [5] is greater than 10 µM; at Vasopressin V2 receptor, greater than 30 µM; in [6], greater than 30 µM; at Estrogen receptor it was greater than 30 µM.

In the case of `COc1ccccc1OCCNCC(O)COc1cccc2[nH]c3ccccc3c12` (stereo not given) [CARVEDILOL], the concentration at half-maximal activity (AC50) in experiment [1] was greater than 30 µM; in experiment [2] it was greater than 30 µM; on Glucagon receptor, greater than 30 µM; in [3] it was 3.99 µM; in experiment [4], greater than 30 µM; on Histamine H2 receptor it was 1.56 µM. Besides, the AC50 is 0.189 µM in experiment [5], greater than 30 µM on Vasopressin V2 receptor, greater than 10 µM in [6] and greater than 30 µM at Estrogen receptor.

Consider `C[C@H]1c2cccc(O)c2C(=O)C2=C(O)[C@]3(O)C(=O)C(C(N)=O)=C(O)[C@@H](N(C)C)[C@@H]3[C@@H](O)[C@@H]21` [DOXYCYCLINE], for which the AC50 in experiment [1] is greater than 30 µM; in [2], greater than 30 µM; at Glucagon receptor it was greater than 30 µM; in experiment [3], greater than 10 µM; in experiment [4], greater than 30 µM; on Histamine H2 receptor, greater than 10 µM. The AC50 was greater than 10 µM in experiment [5], greater than 30 µM at Vasopressin V2 receptor and greater than 30 µM in experiment [6].

With `CC(C)Cc1ccc(C(C)C(=O)O)cc1` (stereo not given) [IBUPROFEN], the AC50 in [1] is greater than 30 µM; in [2], greater than 30 µM; at Glucagon receptor it was greater than 30 µM; in experiment [3], greater than 30 µM; in [4] it was greater than 30 µM; at Histamine H2 receptor it was greater than 10 µM. Besides, the AC50 in [5] is greater than 10 µM; at Vasopressin V2 receptor it was greater than 30 µM; in [6], greater than 30 µM; on Estrogen receptor it was 21.3 µM.

Regarding `CO[C@H]1/C=C/O[C@@]2(C)Oc3c(C)c(O)c4c(O)c(c(/C=N/N5CCN(C)CC5)c(O)c4c3C2=O)NC(=O)/C(C)=C\C=C\[C@H](C)[C@H](O)[C@@H](C)[C@@H](O)[C@@H](C)[C@H](OC(C)=O)[C@@H]1C` [RIFAMPIN], the AC50 in [1] is greater than 30 µM; in experiment [2] it was greater than 30 µM; at Glucagon receptor it was greater than 30 µM; in experiment [3], 20 µM; in experiment [4], greater than 30 µM; on Histamine H2 receptor, greater than 10 µM. Further, the AC50 in experiment [5] was greater than 10 µM; on Vasopressin V2 receptor it was 30 µM; in experiment [6] it was 17 µM.

Consider `CN(C)CCc1c[nH]c2ccc(Cn3cncn3)cc12` [RIZATRIPTAN], for which the AC50 in experiment [1] was greater than 30 µM; in experiment [2] it was greater than 30 µM; at Glucagon receptor, greater than 30 µM; in experiment [3], greater than 10 µM; in experiment [4] it was greater than 30 µM; at Histamine H2 receptor it was greater than 10 µM. In addition, the AC50 in experiment [5] was greater than 10 µM; on Vasopressin V2 receptor, greater than 30 µM; in experiment [6] it was greater than 30 µM.

On to `N[C@@H](CC(=O)N1CCn2c(nnc2C(F)(F)F)C1)Cc1cc(F)c(F)cc1F` [SITAGLIPTIN], for which the AC50 in [2] was greater than 10 µM; in [3] it was greater than 30 µM; at Histamine H2 receptor, greater than 10 µM; in experiment [5], greater than 10 µM; in experiment [6], greater than 30 µM.

As for `Nc1ccc(S(=O)(=O)Nc2nccs2)cc1` [SULFATHIAZOLE], the AC50 in experiment [1] is greater than 30 µM; in experiment [2] it was greater than 30 µM; at Glucagon receptor, greater than 30 µM; in experiment [3], greater than 10 µM; in experiment [4] it was greater than 30 µM; on Histamine H2 receptor, greater than 10 µM. Also, the AC50 in experiment [5] was greater than 10 µM; on Vasopressin V2 receptor it was greater than 30 µM; in [6], greater than 30 µM; at Estrogen receptor, greater than 30 µM.

On to `C=CC[C@@H]1/C=C(\C)C[C@H](C)C[C@H](OC)[C@H]2O[C@@](O)(C(=O)C(=O)N3CCCC[C@H]3C(=O)O[C@H](/C(C)=C/[C@@H]3CC[C@@H](O)[C@H](OC)C3)[C@H](C)[C@@H](O)CC1=O)[C@H](C)C[C@@H]2OC` [TACROLIMUS ANHYDROUS], for which the AC50 was greater than 30 µM in experiment [1]; greater than 30 µM in experiment [2]; greater than 30 µM on Glucagon receptor; greater than 30 µM in experiment [3]; greater than 30 µM in experiment [4]; greater than 10 µM on Histamine H2 receptor. Also, the AC50 was greater than 10 µM in experiment [5], greater than 30 µM at Vasopressin V2 receptor, greater than 30 µM in experiment [6] and greater than 30 µM at Estrogen receptor.

On to `COc1cc2nc(N3CCN(C(=O)C4CCCO4)CC3)nc(N)c2cc1OC` (stereo not given) [TERAZOSIN], for which the AC50 was greater than 30 µM in [1]; greater than 30 µM in experiment [2]; greater than 30 µM at Glucagon receptor; greater than 10 µM in [3]; greater than 30 µM in experiment [4]; greater than 10 µM at Histamine H2 receptor. For the same compound, the AC50 in [5] is 7.27 µM; at Vasopressin V2 receptor, greater than 30 µM; in experiment [6], greater than 30 µM; at Estrogen receptor, greater than 30 µM.

Turning to `Cc1onc(-c2ccccc2)c1-c1ccc(S(N)(=O)=O)cc1` [VALDECOXIB], the AC50 is greater than 30 µM in [1]; greater than 30 µM in [2]; greater than 30 µM on Glucagon receptor; greater than 30 µM in experiment [4]; greater than 10 µM on Histamine H2 receptor; greater than 10 µM in [5]. Besides, the AC50 (on Vasopressin V2 receptor; in experiment [6]) was greater than 30 µM throughout.

One may read the AC50 as the concentration giving half of the maximal activity seen.
